According to PubChem BioAssay (NCI):
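Protocol summary: plate cells (96-well), add compound at 5 concentrations, incubate 48 h, interpolate endpoints linearly. At the TGI there is no net growth.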

Experiments:
Experiment in all cases: NCI anticancer screen, dose series, 48 h
SF-295 CNS = system: SF-295 CNS
MDA-MB-435 = system: MDA-MB-435
OVCAR-4 ovarian = system: OVCAR-4 ovarian
CAKI-1 renal = system: CAKI-1 renal
SF-539 CNS = system: SF-539 CNS
786-0 renal = system: 786-0 renal
PC-3 prostate = system: PC-3 prostate
DU-145 prostate = system: DU-145 prostate
MDA-MB-231 breast = system: MDA-MB-231 breast
SF-268 CNS = system: SF-268 CNS
SW-620 colon = system: SW-620 colon
BT-549 breast = system: BT-549 breast
CCRF-CEM leukemia = system: CCRF-CEM leukemia
NCI-H23 lung = system: NCI-H23 lung
SK-MEL-28 melanoma = system: SK-MEL-28 melanoma
MDA-N = system: MDA-N
HL-60(TB) leukemia = system: HL-60(TB) leukemia
OVCAR-3 ovarian = system: OVCAR-3 ovarian
SK-MEL-5 melanoma = system: SK-MEL-5 melanoma
RXF 393 renal = system: RXF 393 renal

SMILES	TGI (SF-295 CNS) [µM]	TGI (MDA-MB-435) [µM]	TGI (OVCAR-4 ovarian) [µM]	TGI (CAKI-1 renal) [µM]	TGI (SF-539 CNS) [µM]	TGI (786-0 renal) [µM]	TGI (PC-3 prostate) [µM]	TGI (DU-145 prostate) [µM]	TGI (MDA-MB-231 breast) [µM]	TGI (SF-268 CNS) [µM]	TGI (SW-620 colon) [µM]	TGI (BT-549 breast) [µM]	TGI (CCRF-CEM leukemia) [µM]	TGI (NCI-H23 lung) [µM]	TGI (SK-MEL-28 melanoma) [µM]	TGI (MDA-N) [µM]	TGI (HL-60(TB) leukemia) [µM]	TGI (OVCAR-3 ovarian) [µM]	TGI (SK-MEL-5 melanoma) [µM]	TGI (RXF 393 renal) [µM]
CCOC(=O)C1(Cc2ccc3c(c2)CCC3)Cc2cc3c(cc2C1)CCC3	70.8	> 100	87.9	> 100	99.4	> 100	> 100	> 100	> 100	> 100	> 100	> 100	35	> 100	> 100	> 100	> 100	> 100	–	–
Clc1c(Cl)c(Cl)c2nn(C3CCCO3)nc2c1Cl (stereo not given)	> 100	> 100	–	> 100	> 100	> 100	> 100	> 100	> 100	> 100	–	80.5	> 100	> 100	–	> 100	–	> 100	> 100	> 100
COC(=O)C(C)(NC(=O)C(CC(=O)OC(C)(C)C)NC(=O)OC(C)(C)C)c1ccccc1 (stereo not given)	> 100	> 100	–	> 100	> 100	> 100	> 100	> 100	> 100	> 100	> 100	> 100	> 100	> 100	> 100	> 100	> 100	> 100	> 100	> 100
Nc1nc(Cl)c(N)c(NC23CC4CC(CC(C4)C2)C3)n1	11.3	3.41	4.21	3.84	3.72	3.03	2.97	7.05	3.83	> 20.5	2.94	6.76	5	8.43	3.6	3.31	–	3.62	3.82	3.24
CCCCCCCCCCCCCCCCCCNc1ccn(C2OC(COP(=O)(O)OCC3OC(n4cc(C)c(=O)[nH]c4=O)CC3O)C(O)C2O)c(=O)n1 (stereo not given)	33.1	33.7	39.4	33.2	31.5	31.9	10.2	35.8	31.1	32.4	28.5	29.9	23.6	31	31.3	33.1	–	39.7	28.1	25.9
CS(=O)(=O)Nc1ccc(N2Cc3cnc4ccc5[nH]ccc2c5c34)cc1	> 100	31.5	46.6	> 100	–	40.3	42	40.9	37.5	–	> 100	51.3	> 100	76.9	41.6	29.3	64.4	32.2	29	–
O=C1N=c2ccccc2=C1c1c(O)[nH]c2ccccc12	> 100	> 100	29.9	> 100	–	21.6	26.2	54.6	> 100	> 100	> 100	96.2	> 100	69.2	> 100	> 100	–	41.1	> 100	16.3
S=C(c1c[nH]c2ccccc12)N1CCOCC1	> 100	> 100	–	> 100	> 100	> 100	> 100	> 100	> 100	> 100	> 100	> 100	> 100	> 100	> 100	> 100	> 100	> 100	> 100	> 100
O=c1[nH]c(-c2ccc3ccccc3c2)nc2ccccc12	> 100	> 100	9.73	> 100	–	> 100	> 100	> 100	> 100	> 100	> 100	> 100	–	> 100	> 100	> 100	> 100	> 100	> 100	> 100
CCOC(=O)C1=CC(C)(C(=O)OCC)Nc2c(nc(OC)n(C)c2=O)N1 (stereo not given)	> 10	> 10	> 10	> 10	> 10	> 10	> 10	> 10	> 10	> 10	> 10	> 10	> 10	> 10	> 10	> 10	–	> 10	> 10	> 10
O=C(O)c1n[nH]nc1Cl	> 100	> 100	> 100	–	> 100	> 100	> 100	> 100	> 100	> 100	> 100	> 100	> 100	> 100	> 100	> 100	> 100	> 100	> 100	> 100
CN(c1ccc(Cl)cc1)S(=O)(=O)c1cccc([N+](=O)[O-])c1	> 100	> 100	> 100	> 100	> 100	> 100	> 100	> 100	> 100	> 100	> 100	> 100	> 100	> 100	> 100	> 100	–	> 100	72.8	> 100
